Measurements as given in PubChem BioAssay (NCI).
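Exposure lasted 48 hours, with cells grown in 96-well plates and compounds tested at five concentrations. Here, GI50 denotes the concentration required for 50% inhibition of growth. The concentration for full growth arrest is given as TGI.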

Tests used:
Assay in all cases: inhibition of tumour cell growth, NCI panel, 48 h
[1] = tested on: COLO 205 colon
[2] = tested on: HOP-92 NSCLC
[3] = tested on: LOX IMVI melanoma
[4] = tested on: OVCAR-5 ovarian
[5] = tested on: TK-10 renal
[6] = tested on: HS 578T breast
[7] = tested on: K-562 leukemia
[8] = tested on: MCF7 breast
[9] = tested on: SR leukemia
[10] = tested on: MDA-MB-231 breast

Structure (SMILES)	TGI [1]	TGI [2]	TGI [3]	TGI [4]	TGI [5]	TGI [6]	TGI [7]	TGI [8]	TGI [9]	GI50 [1]	GI50 [2]	GI50 [7]	GI50 [3]	GI50 [8]	GI50 [10]	TGI [10]	GI50 [4]	GI50 [9]	GI50 [5]	GI50 [6]
O=C(CC1(O)C(=O)Nc2c(Cl)ccc(Cl)c21)c1ccc(Cl)cc1 (centres undefined)	32.8 µM	93.9 µM	37.3 µM	> 100 µM	> 100 µM	–	–	–	–	–	–	–	–	–	–	–	–	–	–	–
O=C1c2ccccc2N1C(=O)c1ccccc1[N+](=O)[O-]	> 100 µM	> 100 µM	81.6 µM	> 100 µM	> 100 µM	> 100 µM	> 100 µM	> 100 µM	> 100 µM	–	–	–	–	–	–	–	–	–	–	–
COC(=O)C1CC(=O)O[C@H]1c1ccc(OC)c(OC)c1 (some centres undefined)	> 100 µM	> 100 µM	> 100 µM	> 100 µM	> 100 µM	–	> 100 µM	–	> 100 µM	–	–	–	–	–	–	–	–	–	–	–
O=C1c2ccccc2C2(O)N(c3ccccc3)C(=S)N(c3ccccc3)C12O (centres undefined)	> 100 µM	–	> 100 µM	> 100 µM	> 100 µM	–	> 100 µM	–	–	–	–	–	–	–	–	–	–	–	–	–
CCCCCCCCCCN=C(N)c1ccc(N2CCN(c3ccc(C(N)=NCCCCCCCCCC)cc3)CC2)cc1	15.7 µM	28.9 µM	> 50 µM	> 50 µM	> 50 µM	–	> 50 µM	> 50 µM	> 50 µM	3.93 µM	5.88 µM	1.95 µM	3.5 µM	1.55 µM	2.95 µM	17.9 µM	5.25 µM	> 50 µM	8.29 µM	–
COc1cc2c(cc1OCCN1CCN(CCN3C(=O)c4cccc5cccc(c45)C3=O)CC1)N=C[C@@H]1CCCN1C2=O	44.8 µM	–	> 100 µM	35 µM	37.1 µM	54.4 µM	57.7 µM	32.4 µM	41.8 µM	24.8 µM	–	25.2 µM	32.7 µM	15.8 µM	19.9 µM	39.8 µM	19 µM	19.7 µM	19.9 µM	24.9 µM
Oc1c(Br)cc(Cl)cc1C(c1cc(Cl)cc(Br)c1O)C(Cl)(Cl)Cl	3.51 µM	2.48 µM	11.4 µM	13 µM	13.3 µM	> 21.9 µM	16.8 µM	10.9 µM	–	1.87 µM	0.457 µM	0.832 µM	2.97 µM	2.83 µM	1.97 µM	5.98 µM	3.58 µM	–	4.3 µM	2.46 µM
COc1ccc(C(C)Nc2cc(OC)c(OC)c(OC)c2)cc1 (centres undefined)	7.78 µM	> 100 µM	> 92.6 µM	> 100 µM	> 100 µM	–	> 45 µM	–	> 100 µM	–	–	–	–	–	–	–	–	–	–	–
COc1cc2c(cc1C)NC(=O)/C2=C\c1ccc(Oc2ccccc2)cc1	36.9 µM	9.19 µM	27 µM	36.5 µM	32.9 µM	46.9 µM	–	–	2.1 µM	20.7 µM	2.03 µM	–	14 µM	–	18.2 µM	37.5 µM	18.7 µM	0.0697 µM	16.8 µM	20.7 µM
CN(C)c1ccc(/C=C2\CCc3ccccc3C2=O)cc1Br	> 100 µM	> 100 µM	> 100 µM	> 100 µM	> 100 µM	–	> 100 µM	–	> 100 µM	–	–	–	–	–	–	–	–	–	–	–
CC(=O)NC(CCCNC(=O)OCc1ccccc1)C(=O)NCc1ccccc1 (centres undefined)	> 100 µM	> 100 µM	> 100 µM	> 100 µM	> 100 µM	–	> 100 µM	–	–	–	–	–	–	–	–	–	–	–	–	–
N#CC1(CCCCl)CCCCC1	> 100 µM	> 100 µM	> 100 µM	> 100 µM	> 100 µM	–	–	–	> 100 µM	–	–	–	–	–	–	–	–	–	–	–
CC(C)CCCC(C)C1CCC2C3CC([N+](=O)[O-])=C4CC(O)CCC4(C)C3CCC12C (centres undefined)	45.7 µM	46.6 µM	36.6 µM	–	39.6 µM	–	36.8 µM	–	34.1 µM	–	–	–	–	–	–	–	–	–	–	–
Cc1ccccc1NC(=O)CC(=O)NNCC(=O)Nc1nnc(-c2ccccc2)s1	> 100 µM	–	> 100 µM	> 100 µM	> 100 µM	–	> 100 µM	–	> 100 µM	–	–	–	–	–	–	–	–	–	–	–
O=S(=O)(Nc1ccccc1)c1ccc(C2CC3(Cl)C(Cl)=C(Cl)C2(Cl)C3(Cl)Cl)cc1 (centres undefined)	3.48 µM	5.08 µM	3.47 µM	5.46 µM	14.6 µM	–	9.84 µM	7.67 µM	5.2 µM	1.98 µM	1.84 µM	2.51 µM	1.84 µM	2.59 µM	3.44 µM	11.3 µM	2.36 µM	2.08 µM	4.4 µM	–
COC(=O)N/N=C(\C)c1sc(-c2nc(C)c(/C(C)=N/NC(=O)OC)s2)nc1C	> 100 µM	> 100 µM	> 100 µM	> 100 µM	> 100 µM	–	> 100 µM	–	45.7 µM	–	–	–	–	–	–	–	–	–	–	–
CCN1CCN(CC(=O)Nc2nc3ccc(NCc4ccc(Br)cc4)cc3s2)CC1	–	3.04 µM	–	–	4.55 µM	4.81 µM	–	4.9 µM	> 100 µM	–	1.21 µM	–	–	2.05 µM	1.89 µM	4.15 µM	–	2.42 µM	2.24 µM	1.77 µM
CCOC(=O)C1C(NC(N)=O)N(Cc2ccccc2)C(=O)N1Cc1ccccc1 (centres undefined)	> 100 µM	> 100 µM	> 100 µM	> 100 µM	> 100 µM	–	> 100 µM	–	> 100 µM	–	–	–	–	–	–	–	–	–	–	–
O=[N+]([O-])c1ccc(/C=C/c2ccc(/C=C/c3ccc([N+](=O)[O-])cc3[N+](=O)[O-])cc2)c([N+](=O)[O-])c1	–	–	–	> 100 µM	> 100 µM	–	> 100 µM	–	–	–	–	–	–	–	–	–	–	–	–	–
ON1CCc2c([nH]c3ccccc23)C1c1ccc(Cl)cc1 (centres undefined)	80.8 µM	41.1 µM	37.4 µM	99.1 µM	> 100 µM	–	> 100 µM	–	> 100 µM	–	–	–	–	–	–	–	–	–	–	–
C/C(=C\c1ccccc1)C(O)C(=O)c1nc2ccc(Cl)cc2[nH]c1=O (centres undefined)	> 100 µM	–	> 100 µM	> 100 µM	> 100 µM	–	> 100 µM	–	> 100 µM	–	–	–	–	–	–	–	–	–	–	–
